# Measured values published in patent US11207322B2, “Method and composition related to combination therapy for addiction” (Board of Regents, The University of Texas System, priority 2017, dated 2021).
# Entries after “also recorded” stand apart in the source; their conditions may differ.
# Legend:
# 5-HT2C receptors = conditions: in vivo; cited from earlier work
# DA D3 receptor [1] = molecular target: T1, DA D3 receptor (Homo sapiens, UniProt P35462); conditions: cited from earlier work
# humans [2] = conditions: cited from earlier work
# humans [3] = conditions: cited from earlier work; remark: listed apart in the source
# [4] = tested on: rhesus monkeys responding for 0.032 mg/kg/inf cocaine; assay: cocaine self-administration under a progressive ratio (PR) schedule; type: in vivo, rhesus monkey; conditions: for effect on PR responding for cocaine (reinforcing effectiveness of cocaine): 0.032 mg/kg/inf cocaine, 4 rhesus monkeys (2 male, 2 female), acute
# [5] = e.g., valvulopathies; cited from earlier work
# DA D3 receptor [6] = molecular target: T1, DA D3 receptor; conditions: in vivo; cited from earlier work
# [7] = tested on: rhesus monkeys, responding reinstated by cocaine; assay: cocaine-primed reinstatement of extinguished responding for cocaine; type: in vivo, rhesus monkey; conditions: 0.32 mg/kg cocaine prime; 4 rhesus monkeys
# Experimental: Reinstatement of responding for cocaine.
# Experimental design. Monkeys will respond for 0.032 mg/kg/inf cocaine under a FR30:TO180-sec schedule of reinforcement during daily 90-min sessions. During extinction, all stimulus lights will be extinguished with responding being recorded but having no scheduled consequence. During reinstatement tests, the drug-associated stimuli (i.e., the green and red stimulus lights) will be presented according to an FR30:TO180-sec schedule but no infusions will be delivered. Priming infusions of cocaine or saline will be injected directly into the vascular access port (followed by a 5-ml saline flush) 5 min before the start of the session.
# The acute effects of lorcaserin (0.1-3.2 mg/kg; SC; 15 min PT) and buspirone (0.1-3.2 mg/kg; SC; 15 min PT) alone will be studied prior to evaluating mixtures. Because the nature of drug-drug interactions can vary depending upon the composition of the mixture, lorcaserin and buspirone will be evaluated over at least three fixed-dose pairs of at least three fixed-ratios (i.e., 3:1, 1:1, and 1:3), using the strategy described above. Mixtures will be based on the effects of lorcaserin and buspirone alone and customized to individual monkeys. […] Additional fixed-ratios mixtures (10:1 or 1:10) will be evaluated if significant, non-additive interactions are observed with either 3:1 or 1:3 ratios, respectively. […]
# [8] = tested on: rhesus monkeys responding for 0.032 mg/kg/inf cocaine; conditions: cited from earlier work; for effectiveness on cocaine self-administration with daily dosing: administered daily for 10-14 days
# [9] = tested on: rhesus and cynomolgus monkeys; conditions: in vivo; cited from earlier work
# 5-HT2A receptor = conditions: doses comparable to those required to reduce body weight in rats; cited from earlier work
# [10] = molecular target: T2, 5-HT2C over 5-HT2B receptors (Homo sapiens, UniProt P28335); conditions: cited from earlier work
# T2 construct: expressed in transfected cells
# T2 sequence (P28335 33-458): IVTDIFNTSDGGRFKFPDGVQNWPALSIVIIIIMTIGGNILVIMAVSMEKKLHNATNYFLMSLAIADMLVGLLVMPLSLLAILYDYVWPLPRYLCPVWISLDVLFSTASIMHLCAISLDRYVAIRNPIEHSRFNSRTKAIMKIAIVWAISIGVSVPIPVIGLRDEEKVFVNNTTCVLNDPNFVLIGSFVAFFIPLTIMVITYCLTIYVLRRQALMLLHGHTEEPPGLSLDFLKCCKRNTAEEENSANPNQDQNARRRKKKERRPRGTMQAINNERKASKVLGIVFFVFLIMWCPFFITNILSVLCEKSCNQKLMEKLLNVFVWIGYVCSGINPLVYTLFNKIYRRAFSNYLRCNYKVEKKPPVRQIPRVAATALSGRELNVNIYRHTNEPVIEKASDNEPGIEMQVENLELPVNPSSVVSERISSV
# recreational drug users = conditions: 20-60 mg; cited from earlier work
# [11] = molecular target: T3, 5-HT2C over 5-HT2A receptors (Homo sapiens, UniProt P28335); conditions: cited from earlier work
# T3 construct: expressed in transfected cells
# T3 sequence (P28335 33-458): T2 sequence (P28335 33-458)
# obese adults = conditions: in vivo; cited from earlier work
# [12] = functional assays, transfected cells
# T1 sequence (P35462 whole entry): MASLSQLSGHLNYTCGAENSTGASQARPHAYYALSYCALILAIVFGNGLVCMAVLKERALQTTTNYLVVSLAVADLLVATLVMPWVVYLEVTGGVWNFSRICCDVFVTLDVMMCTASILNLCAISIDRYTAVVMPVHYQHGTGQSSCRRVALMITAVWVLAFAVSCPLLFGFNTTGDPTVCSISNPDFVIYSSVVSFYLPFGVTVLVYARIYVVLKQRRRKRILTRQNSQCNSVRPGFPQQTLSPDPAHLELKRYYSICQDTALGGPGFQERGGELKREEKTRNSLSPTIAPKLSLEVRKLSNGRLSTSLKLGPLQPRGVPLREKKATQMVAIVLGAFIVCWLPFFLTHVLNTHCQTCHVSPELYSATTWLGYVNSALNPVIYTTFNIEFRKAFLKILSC
structure (smiles),measurement,setting,value
"Clc1cccc(COc2cncc(N3CCNCC3)n2)c1 [CP-809,101]",cocaine self-administration and/or reinstatement,5-HT2C receptors,decrease cocaine self-administration and/or inhibit the reinstatement of a response previously reinforced by cocaine
Clc1cncc(N2CCNCC2)n1 [MK 212],cocaine self-administration and/or reinstatement,5-HT2C receptors,decrease cocaine self-administration and/or inhibit the reinstatement of a response previously reinforced by cocaine
C[C@H](N)Cn1ccc2cc(F)c(Cl)cc21 [Ro 60-0175],cocaine self-administration and/or reinstatement,5-HT2C receptors,decrease cocaine self-administration and/or inhibit the reinstatement of a response previously reinforced by cocaine
c1cc2c3c(c1)[C@H]1CCC[C@H]1N3CCNC2 [WAY-163909],cocaine self-administration and/or reinstatement,5-HT2C receptors,decrease cocaine self-administration and/or inhibit the reinstatement of a response previously reinforced by cocaine
O=C1CC2(CCCC2)CC(=O)N1CCCCN1CCN(c2ncccn2)CC1 [buspirone],selective binding profile at DA D3 receptors,DA D3 receptor [1],5-70 fold
same,"relative potency at 5-HT1A, DA D3, and DA D4 receptors",DA D3 receptor [1]; recent studies,roughly equipotent
same,reinforcing effects of cocaine in a human laboratory study,humans [2]; 30 mg,failed to alter the reinforcing effects of cocaine
same,sex-related difference in promoting abstinence,humans [3]; 60 mg dose,more effective at promoting abstinence in males than in females
same,"abstinence from cocaine use, multi-site randomized double-blind placebo-controlled pilot study",humans [3]; 60 mg,failed to prolong abstinence from cocaine use
same,effect on PR responding for cocaine (reinforcing effectiveness of cocaine),[4],inhibited responding in a dose-dependent manner; also recorded: dose-dependently decreases the reinforcing effectiveness of cocaine
same,potency in males relative to females at decreasing cocaine self-administration,"[4]; PR schedule, 2 male and 2 female monkeys, more potent in males",~10 fold
same,cardiovascular complications,[5],devoid of serious cardiovascular complications
same,dose needed for clinically relevant DA D3 receptor occupancy relative to 60 mg maximal approved dose,DA D3 receptor [6],at least 3 fold
same,effectiveness of cocaine to reinstate extinguished responding for cocaine,[7],dose-dependently decreases
same,effectiveness on cocaine self-administration with daily dosing,[8],retain their effectiveness to reduce cocaine self-administration
same,cocaine self-administration in monkeys (literature),[9],reliably decreased cocaine self-administration
CN1CCc2cc(Cl)c(O)cc2[C@H]2c3ccccc3CC[C@@H]21 [ecopipam],subjective or reinforcing effects of cocaine in humans,humans [2]; doses that did not produce sedation,failed to alter the subjective or reinforcing effects of cocaine
C[C@@H](Cc1ccccc1)NC(=O)[C@@H](N)CCCCN [lisdexamfetamine],cocaine abstinence in a clinical setting,humans [3]; doses approved to treat ADHD,often ineffective at improving cocaine abstinence
same,cocaine self-administration in monkeys (literature),[9],consistently reduce cocaine self-administration
C[C@H]1CNCCc2ccc(Cl)cc21 [lorcaserin],head-twitches,5-HT2A receptor,produces 5-HT2A receptor-mediated head-twitches
same,selectivity for 5-HT2C over 5-HT2B receptors,[10]; [12],~100 fold
same,selectivity for (5-HT)2C versus 5-HT2B receptor,[10]; in vitro testing,100 ×
same,subjective effects of supra-therapeutic doses,recreational drug users,"subjective ratings of “high”, “good drug effects” and “hallucination”"
same,selectivity for 5-HT2C over 5-HT2A receptors,[11]; [12],~20 fold
same,selectivity over the 5-HT2A receptor,[11]; in vitro testing,17 ×
same,effect on PR responding for cocaine (reinforcing effectiveness of cocaine),[4],inhibited responding in a dose-dependent manner; also recorded: dose-dependently decreases the reinforcing effectiveness of cocaine
same,sensitivity of females relative to males,"[4]; PR schedule, 2 male and 2 female monkeys, females more sensitive",~3 fold
same,cardiovascular complications,[5],devoid of serious cardiovascular complications
same,weight loss,obese adults,"modest, but sustained weight loss"
same,effectiveness of cocaine to reinstate extinguished responding for cocaine,[7],dose-dependently decreases
same,cocaine self-administration under fixed ratio and PR schedules (earlier report of the inventors),[8]; acute administration,dose-dependently inhibits cocaine self-administration
same,effectiveness on cocaine self-administration with daily dosing,[8],retain their effectiveness to reduce cocaine self-administration
same,persistence of anti-cocaine effects,[8]; repeated (daily) treatment,at least 14 days
"Clc1cccc(N2CCNCC2)c1 [mCPP, meta-chlorophenylpiperazine]",cocaine self-administration and/or reinstatement,5-HT2C receptors,decrease cocaine self-administration and/or inhibit the reinstatement of a response previously reinforced by cocaine
